Values joined by “and” are separate entries in the source; they are usually repeats but may differ in a detail not shown here. Equal values may be shown once.
What was measured:
[1] = system: SH-SY5Y neuroblastoma cells; test: Neuroprotection against okadaic acid hyperphosphorylation in SH-SY5Y cells (MTT); format: cell-based, human; details: for % Survival / % Protection: compound 1 μM 24 h, then compound + OA 24 h; for % Survival: basal = 100, OA alone 54.7; for % Protection: n.p = compound does not protect cells
Procedure: Human neuroblastoma SH-SY5Y cells were plated in 96-well clear multi-well plates (6 × 10^4 cells/well). The potential neuroprotective activity of compounds against OS was evaluated using the rotenone (30 μM) (SigmaAldrich, R8875) and oligomycin A (10 μM) (SigmaAldrich, 75351) (R/O) toxic mixture. Neuroprotection activity against Tau hyperphosphorylation was evaluated by using the okadaic acid (20 nM) model. Cells were pre-incubated with each compound (1 µM) for 24 h, and then treatments were removed and cells were incubated with compounds (1 µM) in the presence the corresponding toxic for additional 24 h. At the end of the experiments, viability was determined by the MTT method. Data were normalized from cell death induced by the toxic stimuli (considered as 100% cell death). Then, the protection percentages were calculated by subtracting from the death induced by toxic stimuli, the death in the presence of the compound.
(§1) The tetrazolium ring of MTT can be cleaved by active dehydrogenases to produce a formazan precipitate. At the end of the experiments, MTT (SigmaAldrich, M2003) stock solution was added to each well to achieve a final concentration of 0.5 mg/mL. Cells were incubated for 2 h. Thereafter, culture media was removed, and DMSO was added to each well to dissolve the formazan precipitate. Finally, absorbance was measured in a microplate reader (SPECTROstar nano, BMG Labtech) at 570 nm. Absorbance obtained in basal conditions was considered as 100% cell viability.
Considering these precedents, we envisaged the evaluation of our compounds in a hyperphosphorylation toxicity model induced by okadaic acid (OA), a protein phosphatase 2A inhibitor [58, 59]. This inhibition causes an imbalance between kinase and phosphatase action, leading to hyperphosphorylation of proteins, in particular, Tau. Thus, treatment of SH-SY5Y neuroblastoma cells with OA is a well-stablished model of Tau hyperphosphorylation. Similarly, to the method used for the OS model, we selected a pre-incubation/co-incubation protocol to evaluate the potential neuroprotection capacity related to the NRF2 induction/antioxidant properties of the compounds. Cells were treated with compounds (±)-6, R-6, S-6 or 7a–d (1 µM) during 24 h; thereafter, cells were co-treated with compounds (1 µM) and OA (20 nM) for a further 24 h. Melatonin was also included as a positive control. Finally, cellular viability was evaluated by the MTT method. […] Finally, the (R,S)-7c diastereomer was not able to afford any protection, a result that might be in line with its low NRF2 induction capacity.

[2] = Cytotoxicity in SH-SY5Y cell line (MTT); format: cell-based; details: human; SH-SY5Y, 10, 30 and 100 μM, 24 h, MTT; read-out: CC50
Procedure: SH-SY5Y human neuroblastoma cells were seeded in 96-well clear multi-well plates (6 × 10^4 cells/well). Cells were treated with increasing concentrations of compounds (10, 30 and 100 μM) for 24 h. Thereafter, viability was assessed by the MTT method. Cytotoxic concentration to observe 50% mortality (CC50) values for compounds were interpolated from dose–response curves represented as percentage of cell death vs. concentration of compound, fitted by non-linear regression and data interpolated to value 50.
as §1
In order to evaluate the potential pharmacological profile of new compounds, we first tested the potential neurotoxicity in the neuroblastoma SHSY5Y cell line. Toxicity was evaluated at increasing concentrations (10, 30 and 100 μM), and toxicity was measured as MTT reduction capability. CC50 values were calculated by non-linear regression of curves % survival vs. concentration (Supplementary Materials Figure S2). CGP37157 and previously studied racemic derivatives rac-3a and (rac,R)-3b were included as reference compounds. As previously described, LA is a non-neurotoxic compound at the concentrations texted.

NRF2 = NRF2 induction, luciferase expression in AREc32 cell line; format: cell-based; details: for CD (concentration required to double the specific luciferase activity): AREc32 cells, 0.3, 3, 10 and 30 μM (LA: 0.1–0.6 mM), mean ± SEM
Procedure: AREc32 cell line was kindly shared by Professor Roland Wolf (University of Dundee, UK). AREc32 cells were maintained in DMEM/glutamax/high glucose (Gibco, 61965-06, Madrid, Spain), supplemented with 1% penicillin–streptomycin (10,000 units) (SigmaAldrich, P4333, Madrid, Spain), geneticin (0.8 mg/mL) (Gibco, 11811-031) and 10% FBS (Gibco, 10270106), at 37 °C in a 5% CO2 air atmosphere. Cells were used from passage 4 to 18, and mycoplasma contamination was tested every 4 weeks. AREc32 cells were seeded in 96-well white plates (2 × 10^4 cells/well) for 24 h. Thereafter, cells were treated with each compound (0.3, 3, 10 and 30 µM) in duplicate for 24 h. Non-treated cells were included as basal luciferase expression and tert-butylhydroquinone (TBHQ, 10 μM) as positive control in each plate. Luciferase expression was evaluated by using the Luciferase Assay System (Promega, E1483, Madrid, Spain) by luminescence in an Orion II microplate luminometer (Berthold, Germany). Luciferase activity increase was normalized to basal conditions considered as 1. CD values (concentration required to double the luciferase activity) were calculated from dose–response curves of luciferase fold induction vs. compound concentration, fitted by non-linear regression and data interpolated to value 2.
To evaluate the influence of both stereogenic centers in the NRF2 induction capacity of aza-CGP37157-LA hybrids, we used the AREc32 cell line model by analyzing luciferase expression upon treatment with NRF2 inducers. AREc32 cells were exposed to increasing concentrations of tested compounds 7a–d (0.3, […], 10 and 30 μM) during 24 h; thereafter, luciferase expression was evaluated by luminescent assay to calculate the corresponding CD value (concentration to double luciferase expression). […] TBHQ was included as a positive control, and CGP37157, S- and R-LA, rac-3a and (rac,R)-3b and precursors derivatives (R-6 and S-6) were included for comparative purposes. […] Once R-LA is reduced, it might activate the phase II antioxidant response by acting as pro-oxidant over key Cys residues at KEAP1 to generate the corresponding lipoyl-cystinyl disulphide.

O=C1CN(CCOC(=O)CCCC[C@@H]2CCSS2)[C@@H](c2ccccc2Cl)c2cc(Cl)ccc2N1 [(R,R)-7d, 2-((R)-7-Chloro-5-(2-chlorophenyl)-2-oxo-1,2,3,5-tetrahydro-4H-benzo[e][1,4]diazepin-4-yl)ethyl 5-((R)-1,2-dithiolan-3-yl)pentanoate]
neuroprotective capacity relative to (S,R)-7b, folds less potent ([1]; OA model, 1 µM): 2 folds | % Survival [1]: 63.3 ± 8.7% | % Protection [1]: 21% | CC50 at 24 h [2]: > 100 µM | luciferase activity increase at 30 μM (NRF2; AREc32 cells, 24 h, vs basal): significantly increase luciferase activity | CD (concentration required to double the specific luciferase activity) (NRF2; 24 h): over 30 μM

O=C1CN(CCOC(=O)CCCC[C@@H]2CCSS2)[C@H](c2ccccc2Cl)c2cc(Cl)ccc2N1 [(R,S)-7c, 2-((S)-7-Chloro-5-(2-chlorophenyl)-2-oxo-1,2,3,5-tetrahydro-4H-benzo[e][1,4]diazepin-4-yl)ethyl 5-((R)-1,2-dithiolan-3-yl)pentanoate]
% Survival [1]: 50.7 ± 15.6% | % Protection [1]: not protective and n.p | CC50 at 24 h [2]: > 100 µM | luciferase activity increase at 10 μM (NRF2; AREc32 cells, 10 μM, 24 h, vs basal): significantly increase luciferase activity | luciferase activity increase at 30 μM (NRF2; AREc32 cells, 24 h, vs basal): significantly increase luciferase activity | CD (concentration required to double the specific luciferase activity) (NRF2; 24 h): over 30 μM

O=C1CN(CCOC(=O)CCCC[C@H]2CCSS2)[C@@H](c2ccccc2Cl)c2cc(Cl)ccc2N1 [(S,R)-7b, 2-((R)-7-Chloro-5-(2-chlorophenyl)-2-oxo-1,2,3,5-tetrahydro-4H-benzo[e][1,4]diazepin-4-yl)ethyl 5-((S)-1,2-dithiolan-3-yl)pentanoate]
% Survival [1]: 70.6 ± 10.3% | % Protection [1]: 41.9% and 40.2% | CC50 at 24 h [2]: > 100 µM | CD (concentration required to double the specific luciferase activity) (NRF2; 24 h): 11.9 ± 1.3 µM | NRF2 induction potency relative to (S,S)-7a (NRF2; ratio of CD values): 2.2 fold

O=C1CN(CCOC(=O)CCCC[C@H]2CCSS2)[C@H](c2ccccc2Cl)c2cc(Cl)ccc2N1 [(S,S)-7a, 2-((S)-7-Chloro-5-(2-chlorophenyl)-2-oxo-1,2,3,5-tetrahydro-4H-benzo[e][1,4]diazepin-4-yl)ethyl 5-((S)-1,2-dithiolan-3-yl)pentanoate]
% Survival [1]: 63.2 ± 7.6% | % Protection [1]: 21.2% | CC50 at 24 h [2]: > 100 µM | CD (concentration required to double the specific luciferase activity) (NRF2; 24 h): 26.5 ± 1.3 µM

— paper PMC8772772, “Enantioselective Synthesis and Pharmacological Evaluation of Aza-CGP37157–Lipoic Acid Hybrids for the Treatment of Alzheimer’s Disease” (Antioxidants, 2022)
